Like-named read-outs stand apart in the source and are kept apart here.
Assays:
kappa opioid receptor [1] = target: T1, kappa opioid receptor (Homo sapiens, UniProt P41145); assay: GTPγS binding assay (G-protein activation); assay type: biochemical; conditions: for EC50: 3 parameter nonlinear regression, nc = did not converge; for GTPγS Emax (% U60): relative to U69,593 = 100% Emax
Target sequence in this assay (P41145 whole entry): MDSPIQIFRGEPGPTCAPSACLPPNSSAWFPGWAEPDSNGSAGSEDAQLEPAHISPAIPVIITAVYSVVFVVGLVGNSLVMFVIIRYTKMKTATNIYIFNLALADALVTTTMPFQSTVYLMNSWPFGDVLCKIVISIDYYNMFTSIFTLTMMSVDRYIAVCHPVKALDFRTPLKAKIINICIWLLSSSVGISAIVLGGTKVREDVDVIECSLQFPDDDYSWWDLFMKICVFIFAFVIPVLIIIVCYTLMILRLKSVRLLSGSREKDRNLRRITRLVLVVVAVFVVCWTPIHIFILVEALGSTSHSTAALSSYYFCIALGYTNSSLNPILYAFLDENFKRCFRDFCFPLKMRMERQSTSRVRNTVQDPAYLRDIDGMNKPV

kappa opioid receptor [2] = target: T1, kappa opioid receptor; assay: Bias analysis by operational model, G protein vs βarrestin2, U69,593 as reference agonist; conditions: U69,593 reference agonist; global parameter fitting
Target sequence in this assay (P41145 whole entry): as above

kappa opioid receptor [3] = target: T1, kappa opioid receptor; assay: PathHunter DiscoverX β-arrestin2 recruitment (enzyme fragment complementation) assay; assay type: cell-based; conditions: for EC50: 3 parameter nonlinear regression, nc = did not converge; for β-arrestin2 Emax (% U60): relative to U69,593 = 100% Emax, ~ did not plateau at 100%; for β-arrestin2 maximum stimulation observed at 10 μM (starred Emax cells / % max at 10 uM): * compounds that did not reach plateau
Target sequence in this assay (P41145 whole entry): as above
Target sequence in this assay (P32121 whole entry partner): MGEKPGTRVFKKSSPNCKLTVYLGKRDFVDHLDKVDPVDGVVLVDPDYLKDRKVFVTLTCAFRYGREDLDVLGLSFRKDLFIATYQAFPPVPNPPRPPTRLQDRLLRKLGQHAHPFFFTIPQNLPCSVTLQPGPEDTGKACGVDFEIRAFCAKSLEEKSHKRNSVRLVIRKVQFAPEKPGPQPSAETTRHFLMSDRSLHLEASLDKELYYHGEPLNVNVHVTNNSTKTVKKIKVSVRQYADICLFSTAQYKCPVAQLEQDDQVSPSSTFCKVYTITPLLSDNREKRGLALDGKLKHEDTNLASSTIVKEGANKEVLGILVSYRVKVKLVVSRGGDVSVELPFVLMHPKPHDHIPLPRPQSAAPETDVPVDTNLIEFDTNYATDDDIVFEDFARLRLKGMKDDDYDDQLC

adult male C57BL6/J mice [4] = conditions: mouse, in vivo
δ-opioid receptor = target: T2, δ-opioid receptor (Homo sapiens, UniProt P41143); assay: Radioligand binding displacement (Psychoactive Drug Screening Program); conditions: initial profiling
T2 construct: Psychoactive Drug Screening Program (UNC-CH)
T2 sequence (P41143 whole entry): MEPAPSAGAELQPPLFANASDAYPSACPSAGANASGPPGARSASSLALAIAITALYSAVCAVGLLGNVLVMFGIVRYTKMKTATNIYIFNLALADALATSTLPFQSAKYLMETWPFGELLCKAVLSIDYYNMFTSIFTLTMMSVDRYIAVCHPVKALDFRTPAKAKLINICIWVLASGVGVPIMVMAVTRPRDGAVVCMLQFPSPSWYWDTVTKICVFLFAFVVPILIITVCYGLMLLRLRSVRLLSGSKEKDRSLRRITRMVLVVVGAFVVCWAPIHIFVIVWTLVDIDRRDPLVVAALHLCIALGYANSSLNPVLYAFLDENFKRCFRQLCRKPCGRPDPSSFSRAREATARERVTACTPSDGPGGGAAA
Text: (§1) In some embodiments, the compounds disclosed herein are selective KOR binding ligands. As used herein, the term “selective binding ligands” refers to compounds, which display an increased selectivity for binding a particular KOR when compared to inhibiting other opioid receptors (such as μ- and δ-opioid receptors).

μ-opioid receptor = target: T3, μ-opioid receptor (Homo sapiens, UniProt P35372); assay: as above; conditions: initial profiling
T3 construct: Psychoactive Drug Screening Program (UNC-CH)
T3 sequence (P35372 whole entry): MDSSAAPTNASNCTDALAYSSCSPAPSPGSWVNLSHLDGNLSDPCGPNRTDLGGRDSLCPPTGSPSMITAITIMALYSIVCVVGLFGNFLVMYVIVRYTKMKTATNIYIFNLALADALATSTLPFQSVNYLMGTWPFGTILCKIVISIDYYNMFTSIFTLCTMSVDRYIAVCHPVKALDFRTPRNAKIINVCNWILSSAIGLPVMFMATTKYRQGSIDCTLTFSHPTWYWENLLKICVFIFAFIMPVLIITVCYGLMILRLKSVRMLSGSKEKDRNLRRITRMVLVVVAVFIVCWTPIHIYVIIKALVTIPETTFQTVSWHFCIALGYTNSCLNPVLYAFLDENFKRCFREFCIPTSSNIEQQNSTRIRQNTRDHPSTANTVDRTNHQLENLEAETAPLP
Text: as §1

[5] = Microsomal stability, LC/MS detection over time; conditions: mouse hepatic microsomes
Experimental: (§2) Microsomal stability was determined using mouse hepatic microsomes and LC/MS detections over time (Zhou et al., 2013, 22).

[6] = mouse, microsomes
Experimental: as §2

adult male C57BL6/J mice [7] = assay: Open field test box mouse model for sedation; conditions: 60 minutes

SMILES	EC50 (kappa opioid receptor [1]) [nM]	GTPγS Emax (% U60) (kappa opioid receptor [1])	EC50 (kappa opioid receptor [3]; read-out: β-arrestin2 EC50) [nM]	β-arrestin2 Emax (% U60) (kappa opioid receptor [3])	Microsomal Stability [6] [min]	β-arrestin2 maximum stimulation observed at 10 μM (starred Emax cells / % max at 10 uM) (kappa opioid receptor [3])	also measured
Cc1ccc(CCc2nnc(-c3nccn3C)n2Cc2cccs2)cc1C(F)(F)F [Compound 56]	95	105	888	98			Bias (bias factor 10^ΔΔ(logτ/KA) Gprotein-Barr2) (kappa opioid receptor [2]): 12
Cc1ccc(/C=C/c2nnc(-c3ccccn3)n2Cc2ccco2)cc1C(F)(F)F [42 (UNC9008)]	1600	96.5	51300	119			Bias (bias factor 10^ΔΔ(logτ/KA) Gprotein-Barr2) (kappa opioid receptor [2]): 3.5
Cc1ccc(CCc2nnc(-c3ccccn3)n2Cc2cccs2)cc1C(F)(F)F [Compound 5]			624	110			sedation in open field test activity monitor (adult male C57BL6/J mice [4]): does not induce sedation; displacement of radioligand binding to δ-opioid receptor (δ-opioid receptor): less than 50%; displacement of radioligand binding to μ-opioid receptor (μ-opioid receptor): less than 50%
Clc1ccc(CCc2nnc(-c3ccccn3)n2Cc2cccs2)cc1Cl [Compound 32]							Microsomal Stability [5]: 1.5 min
Cc1ccc(/C=C/c2nnc(-c3ccccn3)n2Cc2ccco2)cc1C(F)(F)F (single isomer, unassigned) [Compound 40]	1600	97	7200	54	18		KOR potency / activity in words (SAR commentary) (kappa opioid receptor [1]): loss in potency; Bias (bias factor 10^ΔΔ(logτ/KA) Gprotein-Barr2) (kappa opioid receptor [2]): 5
O=C(Cc1ccccc1)c1nnc(-c2ccccn2)n1Cc1ccco1 [Compound 42]				2	8.1		KOR potency / activity in words (SAR commentary) (kappa opioid receptor [1]): loss in potency; GTPγS maximum stimulation observed at 10 μM (starred Emax cells) (kappa opioid receptor [1]; * compounds that did not reach plateau, 10 μM): 4* % U60; metabolic stability in words [6]: increased metabolic stability
Cc1ccc(CSc2nnc(-c3ccccn3)n2Cc2ccco2)cc1C(F)(F)F [Triazole 1.1]							sedation in open field test activity monitor (adult male C57BL6/J mice [7]): does not induce sedation; time spent in the center of the open field box (adult male C57BL6/J mice [7]): did not effect center time; Microsomal Stability [5]: 1.1 min
Cc1ccc(CCc2nnc(-c3ccccn3)n2Cc2nccs2)cc1C(F)(F)F [Compound 7]	51	63	3570	82	2.1		
FC(F)(F)c1ccc(CCc2nnc(-c3ccccn3)n2Cc2cccs2)cc1Cl [Compound 34]	1.4		127		1.3		
Brc1ccc(CCc2nnc(-c3ccccn3)n2Cc2cccs2)cc1 [Compound 28]		96	963	106	4.6		
C(=C/c1nnc(-c2ccccn2)n1Cc1ccco1)/c1ccccc1 [Compound 39]	1800				12.6	19* % U60	
Cc1ccc(/C=C/c2nnc(-c3ccccn3)n2Cc2nccs2)cc1C(F)(F)F [Compound 48]	767	82			19.1	51* % U60	
Cc1ccc(CCc2nnc(-c3ccccn3)n2Cc2ccco2)cc1C(F)(F)F [Compound 2]		90		119			Microsomal Stability ([5]; Table 1, head prints no unit (b175 gives min)): 0.9; Microsomal Stability [5]: 0.9 min; EC50 (kappa opioid receptor [3]; β-arrestin2 EC50 (nM)): 788 nM
Brc1cccc(CCc2nnc(-c3ccccn3)n2Cc2cccs2)c1 [Compound 29]		89	5020	114	3.1		
Clc1ccc(CCc2nnc(-c3ccccn3)n2Cc2cccs2)c(Cl)c1 [Compound 33]		91		154			Microsomal Stability [5]: 2.1 min
Cc1ccc(/C=C/c2nnc(-c3nccn3C)n2Cc2nccs2)cc1C(F)(F)F [53 (UNC9081)]	309		1570		14.5	25.9 (% max at 10 uM) % U60	
Brc1ccccc1CCc1nnc(-c2ccccn2)n1Cc1cccs1 [Compound 30]		84	> 10000		1.7	53* % U60	
Cc1ccc(CCN(CCc2ccco2)C(=O)c2ccccn2)cc1C(F)(F)F [Compound 61]	1540	78	> 10000		0.9	41* % U60	
Cc1ccc(/C=C/c2nnc(-c3ccccn3)n2Cc2cccs2)cc1C(F)(F)F [49 (UNC9009)]	667	83.2	20600			36.4 (% max at 10 uM) % U60	Bias (bias factor 10^ΔΔ(logτ/KA) Gprotein-Barr2) (kappa opioid receptor [2]): 6.7
Cc1ccc(CCc2nnc(-c3cccnc3)n2Cc2cccs2)cc1C(F)(F)F [Compound 15]		85			1.0	14* % U60	
